The values that follow come from patent publication US4814340A, “1,4-diaryl alkane derivatives having insecticidal and acaricidal activity” (priority 1982, dated 1989).

The subject of data set [1] is green rice leafhopper (female adults). The experiment in a line: Test 2 (Effect on Green Rice Leafhopper). Format: in vivo. The following applies: 48 hours, marked * in Table 3.
The test system of the next data set is plants of Solanacede. Kind of data set: phytotoxicity to plants of Solanacede.
In a further data set the test system is yearling carps. The experiment in a line: Test 5 (Fish Toxicity). In kind it is in vivo, carp.
For data set [2], the system named is common cutworm (third-instar larvae). The experiment in a line: Test 1 (Effect on Common Cutworm). In kind it is in vivo. The following applies: Spodoptera litura, 48 hours, third-instar larvae, read-out: Mortality (%).
Data set [3] concerns German cockroach (female adults). The experiment in a line: Test 3 (Effect on German Cockroach). Format: in vivo, Blatella germanica (German cockroach). The following applies: Blattella germanica, 48 hours, female adults, read-out: Mortality (%); for mortality at 1 mg/m2: 1 mg/m^2; for mortality at 5 mg/m2: 5 mg/m^2. On the procedure: (§1) Compounds (a) through (g) described below were tested as comparative compounds in the same manner as the compounds of the present invention. All the tests were doubly carried out. Namely, each result was expressed by an average value of two data.
One ml of an acetone solution of a test compound of a specified concentration was poured in a high Petri dish having a diameter of 9 cm and a height of 9 cm. The Petri dish was allowed to stand, and thereby the acetone was evaporated. The upper part of the inner wall of the Petri dish was treated with butter to prevent the adults of German cockroach from escaping from the Petri dish. 10 female adults of German cockroach were set free in each Petri dish. 48 hours after, the number of killed adults was counted.

The subject of data set [4] is two-spotted spider mite (adults). The experiment in a line: Test 4 (Effect on Two-Spotted Spider Mite). Format: in vivo. The following applies: Tetranychus urticae; 200 ppm; 24 hours; adults; read-out: Mortality (%). On the procedure:
as §1
A kidney bean leaf disc (20 mm in diameter) perforated with a cork borer was placed on water-impregnated absorbent cotton, and thereon 20 adults of two-spotted spider mite were set free, and the resulting set was allowed to stand around the clock. The same dilution of the emulsifiable concentrate of a test compound having a concentration of 200 ppm as used in Test 1 and Test 2, was applied by an applicator having a diameter of 20 cm and a height of 60 cm in an amount of 3 ml. 24 hours after, the number of killed adults was counted.

For data set [5], the system named is green rice leafhopper (female adults). Kind of data set: Test 2 (Effect on Green Rice Leafhopper). Format: in vivo. The conditions noted are these: Nephotettix cincticeps, 48 hours, female adults, read-out: Mortality (%).

Turning to “1-(3-Benzoylphenyl)-4-(4-chlorophenyl)-4-methylpentane [Compound 11]”, the “Rate of Number of Adults KnockedDown” value in data set [1] (20 ppm) turned out to be 60%; in data set [1] (100 ppm) it was 90%.
Take `CC(C)C(C(=O)OC(C#N)c1cccc(Oc2ccccc2)c1)c1ccc(Cl)cc1` (stereo not shown) [(g), Fenvalerate, reference compound]: the “phytotoxicity to plants of Solanacede” value in the data set with plants of Solanacede was “observed”. Moreover, the “Mortality(%) 48 Hours After” value in the data set on yearling carps (0.1 ppm in water) and in the data set with yearling carps (1 ppm in water) was 100% in each case.
Regarding `CCOc1ccc(C(C)(C)CCCN2C(=O)C3=C(CCCC3)C2=O)cc1` [Compound 12, 1-(3,4,5,6-Tetrahydrophthalimido)-4-(4-ethoxyphenyl)-4-methylpentane], the “Rate of Number of Adults KnockedDown” value stood at 40% in data set [1] (20 ppm) and 80% in data set [1] (100 ppm).
Take `CC(C)(CCCc1ccc(F)c(Oc2ccccc2)c1)c1ccc(Cl)cc1` [Compound 20]: the “Mortality(%) 48 Hours After” value with yearling carps (0.1 ppm in water) is given as 0%. Further, the “Mortality(%) 48 Hours After” value in the data set with yearling carps (1 ppm in water) was 0%. Also, in data set [2], the mortality (usually the share of the test organisms that died) at 20 ppm amounted to 100% and the mortality at 100 ppm is 100%. Moreover, in data set [3], the mortality at 1 mg/m2 turned out to be 100% and the mortality at 5 mg/m2 came to 100%. Besides, in data set [4], the mortality at 200 ppm is 100%. Besides, in data set [5], the mortality at 20 ppm stood at 100% and the mortality at 100 ppm was 100%.
`CCOc1ccc(C(C)(C)CCCc2cccc(Oc3ccccc3)c2)cc1` [Compound 24]: the “Mortality(%) 48 Hours After” value with yearling carps (0.1 ppm in water) worked out at 0%. Besides, the “Mortality(%) 48 Hours After” value in the data set on yearling carps (1 ppm in water) is 0%. Besides, in data set [2], the mortality at 20 ppm turned out to be 100% and the mortality at 100 ppm came to 100%. Further, in data set [3], the mortality at 1 mg/m2 came out at 100% and the mortality at 5 mg/m2 was found to be 100%. Moreover, the mortality at 200 ppm in data set [4] was 95%. For the same molecule, in data set [5], the mortality at 20 ppm was 100% and the mortality at 100 ppm was found to be 100%.
For the molecule `CCOc1ccc(C(C)(C)CCCc2ccc(F)c(Oc3ccccc3)c2)cc1Cl` [Compound 57], the “Mortality(%) 48 Hours After” value in the data set on yearling carps (0.1 ppm in water) and in the data set with yearling carps (1 ppm in water) was 0% throughout. Further, the mortality at 20 ppm in data set [2] and in data set [5] was 100% each time. The mortality at 100 ppm in data set [2] and in data set [5] was 100% throughout. For the same molecule, the mortality at 1 mg/m2 in data set [3] was determined as 100%. For the same molecule, in data set [3], the mortality at 5 mg/m2 came to 100%. Moreover, the mortality at 200 ppm in data set [4] was 91%.
